Measured values reported in ChEMBL document CHEMBL4602649, “Identification of 6'-β-fluoro-homoaristeromycin as a potent inhibitor of chikungunya virus replication” (Eur J Med Chem, 2020).
The source made the active and inactive calls. The calls are words filed in the database; no cut-off is given here.

What was measured:
[1] = system: Chikungunya virus; test: Antiviral activity against CHIKV LS3 infected in African green monkey Vero E6 cells assessed as reduction in virus-induced cytopathic effect pretreated with compound followed by viral infection and measured at 96 hrs post-infection by MTS assay; assay type: functional, organism-based; settings: LS3, Vero C1008
[2] = system: SARS-CoV; test: Antiviral activity against SARS-CoV Frankfurt1 infected in African green monkey Vero E6 cells pretreated with compound followed by viral infection and measured at 72 hrs post-infection by MTS assay; assay type: functional, organism-based; settings: Severe acute respiratory syndrome-related coronavirus; Frankfurt 1; Vero C1008
[3] = system: Vero C1008; test: Cytotoxicity against African green monkey Vero E6 cells assessed as reduction in cell viability measured after 96 hrs by MTS assay; assay type: cell-based; settings: chlorocebus sabaeus, vero c1008, 96 h
[4] = system: Middle East respiratory syndrome-related coronavirus; test: Antiviral activity against MERS-CoV EMC/2012 infected in African green monkey Vero cells pretreated with compound followed by viral infection and measured at 72 hrs post-infection by MTS assay; assay type: functional, organism-based
[5] = system: Zika virus; test: Antiviral activity against ZIKV SL0612 infected in African green monkey Vero CCL81 cells pretreated with compound followed by viral infection and measured at 96 hrs post-infection by MTS assay; assay type: functional, organism-based
[6] = molecular target: Adenosylhomocysteinase (Homo sapiens, UniProt P23526); test: Inhibition of human placental SAH hydrolase expressed in Escherichia coli JM109 using SAH as substrate preincubated for 10 mins followed by SAH addition and measured after 20 mins by DNTB reagent-based spectrophotometric method
Adenosylhomocysteinase, sequence (P23526 whole entry): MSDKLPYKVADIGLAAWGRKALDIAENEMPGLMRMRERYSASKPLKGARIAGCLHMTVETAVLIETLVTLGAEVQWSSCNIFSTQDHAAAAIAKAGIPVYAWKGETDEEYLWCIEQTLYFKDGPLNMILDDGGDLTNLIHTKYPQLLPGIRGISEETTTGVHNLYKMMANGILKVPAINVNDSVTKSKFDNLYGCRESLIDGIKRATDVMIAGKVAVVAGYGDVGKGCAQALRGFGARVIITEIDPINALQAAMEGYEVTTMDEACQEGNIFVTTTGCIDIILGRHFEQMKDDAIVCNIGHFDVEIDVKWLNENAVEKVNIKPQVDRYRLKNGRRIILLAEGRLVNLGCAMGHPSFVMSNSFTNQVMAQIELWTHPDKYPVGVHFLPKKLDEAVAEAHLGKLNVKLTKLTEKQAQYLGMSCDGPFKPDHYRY

[7] = Selectivity index, ratio of CC50 for African green monkey Vero E6 cells to EC50 for antiviral activity against CHIKV-LS3 infected in African green monkey Vero E6 cells; assay type: toxicity, Vero C1008; settings: read-out: Ratio CC50/EC50

SMILES | EC50 [1] | Activity [2] | CC50 [3] | Activity [4] | Activity [5] | IC50 [6] | selectivity ratio [7]
Nc1ncnc2c1ncn2[C@H]1[C@H](O)[C@H](O)[C@@H](CO)C1(F)F | 0.13 µM | Active | > 1.25 µM | Active | Active |  | 
OCC[C@@H]1[C@@H](O)[C@@H](O)[C@H](n2cnc3c(O)ncnc32)[C@@H]1F | > 100 µM | inactive | > 100 µM | inactive | inactive | > 100 µM | 
Nc1ncnc2c1ncn2[C@H]1[C@H](O)[C@H](O)[C@@H](CCO)[C@H]1F | 0.12 µM | inactive | > 250 µM | inactive | inactive | 0.36 µM | > 2080
CNc1ncnc2c1ncn2[C@H]1[C@H](O)[C@H](O)[C@@H](CCO)C1(F)F | > 100 µM | inactive | > 100 µM | inactive | inactive | 3.05 µM | 
CNc1ncnc2c1ncn2[C@H]1[C@H](O)[C@H](O)[C@@H](CCO)[C@H]1F | > 100 µM | inactive | > 100 µM | inactive | inactive | 0.37 µM | 
Nc1ncnc2c1ncn2[C@H]1[C@H](O)[C@H](O)[C@@H](CCO)C1(F)F | > 100 µM | inactive | > 25 µM | inactive | inactive | 2.03 µM | 
Nc1ncnc2c1ncn2[C@H]1[C@H](O)[C@H](O)[C@@H](CO)[C@H]1F | > 100 µM | Active | > 100 µM | Active | Active |  | 
